Source: US20100022639A1, “Methods of Inducing Weight Loss” (The Johns Hopkins University School of Medicine Licensing …, priority 2000, published 2010)

Legend:
feeding behavior [1] = assay: ICV TOFA pretreatment and feeding inhibition by IP C-75; assay type: in vivo, BALB/c mice; details: 2 μg TOFA ICV, 2 hours later 15 mg/kg C-75 IP, food intake over 2 hours
Method: This model predicts that feeding inhibition by FAS inhibitors should be attenuated by inhibitors of ACC's. To test this, mice were pretreated with the ACC inhibitor TOFA or vehicle by ICV injection and examined the ability of C-75, administered IP, to inhibit feeding. BALB/c mice were anesthetized with metofane and injected ICV with 2 μg of TOFA or DMSO vehicle. After 2 hours recovery, mice were injected IP with 15 mg C-75/kg or RPMI vehicle and monitored for total food intake over 2 hours. […] In addition, mice were anesthetized and injected ICV with 2 μl of RPMI or C-75 at 2.5 or 5 μg/μl and food intake monitored over 2 (shaded) and 4 (solid) hours. The efficacy of centrally administered TOFA argues for a central (CNS) mechanism of action. ICV administration of C-75 inhibited feeding by 82% (FIG. 5C), supporting the central target action of C-75. FIGS. 5(B) and (C) combine results from 3 experiments with N=3 for each (9 total).

[2] = test system: acetyl CoA carboxylase (ACC); details: previous studies; cited from earlier work
feeding behavior [3] = assay: Reversal of C-75 feeding inhibition by intracerebroventricular NPY; assay type: in vivo, mice; details: 500 ng NPY ICV
Method: To confirm this finding, the capacity of NPY to reverse C-75-induced inhibition of feeding was examined. Mice were pretreated with 30_mg/kg of C-75 by I.P. injection. After 4 hours, mice were anaesthetized by inhaled metofane and given a direct intracerebroventricular injection of 500_ng NPY (2.5 μl total volume) or artificial CSF vehicle. Mice were placed into metabolic cages and observed for feeding behavior and monitored for food intake over 18 hours.

Compound	food intake in C-75-treated mice after TOFA pretreatment (feeding behavior [1])	effect on fatty acid synthesis [2]	effect on feeding [2]	feeding behavior after ICV injection (feeding behavior [3]; mice pretreated with vehicle or C-75)	total food intake in C-75-treated mice (feeding behavior [3]; monitored over 18 hours)
CCCCCCCCCCCCCCOc1ccc(C(=O)O)o1 [TOFA]	largely restored food intake	inhibition of fatty acid synthesis	did not inhibit feeding	–	–
NPY: neuropeptide Y, anabolic neuropeptide produced in the hypothalamus that strongly stimulates feeding; injected ICV	–	–	–	rapidly led to voracious feeding	substantially elevate the total food intake
